Reference: PubChem BioAssay (NCI)
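48-hour exposure; five concentrations; linearly interpolated endpoints. TGI marks complete inhibition of growth.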 Where a SMILES comes first, the peptide text is derived from it. [ ]: non-standard residue; d: D form. ξ: configuration not given here. ξLac(3-iPr) = CC(C)CC(O)C(=O)O; NMeV = CN[CH](C(=O)O)C(C)C; NMeA = CN[CH](C)C(=O)O; βAla = NCCC(=O)O

Experiments:
Experiment in all cases: DTP human tumour cell line panel, 48 h
786-0 renal = system: 786-0 renal
A498 renal = system: A498 renal
BT-549 breast = system: BT-549 breast
DU-145 prostate = system: DU-145 prostate
EKVX NSCLC = system: EKVX NSCLC
HCC-2998 colon = system: HCC-2998 colon
HCT-116 colon = system: HCT-116 colon
HOP-92 NSCLC = system: HOP-92 NSCLC
HS 578T breast = system: HS 578T breast
KM12 colon = system: KM12 colon
MDA-N = system: MDA-N
NCI-H226 lung = system: NCI-H226 lung
NCI-H460 lung = system: NCI-H460 lung
OVCAR-3 ovarian = system: OVCAR-3 ovarian
OVCAR-8 ovarian = system: OVCAR-8 ovarian
SN12C renal = system: SN12C renal
UACC-257 melanoma = system: UACC-257 melanoma

Structure (SMILES)	TGI (786-0 renal) [µM]	TGI (A498 renal) [µM]	TGI (BT-549 breast) [µM]	TGI (DU-145 prostate) [µM]	TGI (EKVX NSCLC) [µM]	TGI (HCC-2998 colon) [µM]	TGI (HCT-116 colon) [µM]	TGI (HOP-92 NSCLC) [µM]	TGI (HS 578T breast) [µM]	TGI (KM12 colon) [µM]	TGI (MDA-N) [µM]	TGI (NCI-H226 lung) [µM]	TGI (NCI-H460 lung) [µM]	TGI (OVCAR-3 ovarian) [µM]	TGI (OVCAR-8 ovarian) [µM]	TGI (SN12C renal) [µM]	TGI (UACC-257 melanoma) [µM]
Cc1ccnc2[nH]c(-c3ccc(F)cc3)cc(=O)c12	> 100	97.9	> 100	> 100	> 100	> 100	> 100	> 100	> 100	> 100	> 53.9	> 100	> 60.4	> 100	> 100	> 100	> 100
NC(=O)SCCC(N)C(=O)O (centres undefined)	> 100	> 100	> 100	> 100	> 100	> 100	> 100	> 100	> 100	> 100	> 100	> 100	> 100	> 100	> 100	> 100	> 100
COc1ccc(N=NC(=Nc2ccc(Cl)cc2)c2ccc(N(CCC#N)CCC#N)cc2)cc1	> 100	> 100	87.3	> 100	> 100	> 100	> 100	93	> 100	> 100	> 100	> 100	> 100	> 100	> 100	> 100	64.7
O=c1cc(N=Nc2ccc(Cl)c(Cl)c2)[nH]c(=O)[nH]1	2.86	28.8	4.77	9.19	3.49	6.35	3.21	3.07	13.1	6.15	3.36	33.2	7.46	5.41	4.89	4.79	6.15
COc1cc(/C=C\c2nnc(/C=C\c3ccc(O)c(OC)c3)s2)ccc1O	> 100	6.4	11.1	8.26	18.4	12.9	14	42.2	> 37.8	15.4	16.4	39	> 35.2	10.7	> 42.9	> 92.8	> 30.7
C[N+](C)(C)c1cc2c(nn1)Nc1ccccc1S2	> 100	87.8	> 100	> 100	29.9	71.5	66	48.5	> 100	> 100	50.3	35.9	48.8	54.8	77.9	> 100	62.6
CC(=O)c1ccc2c(c1)CC1(C2)Cc2ccc3c(c2C1=O)CCC3 (centres undefined)	40.8	> 100	> 100	> 100		37.8	> 100	41.2	> 100	> 100	94.6	> 100	> 100	> 100		> 100	38.2
COc1ccc(C2=C(N)c3ncccc3C2=O)cc1	> 100	> 100	> 100	> 100	> 100	> 100	> 100	> 10	> 100	> 100	> 100	> 100	> 100	> 100	> 100	> 100	> 10
C[N+](C)(C)CC(=O)N/N=C(\C(=O)NC1=C(Cl)C(=O)c2ccccc2C1=O)C(C#N)c1nc(-c2ccc([N+](=O)[O-])cc2)cs1 (centres undefined)	29.1	33.3	15.1	14.1	34.2	30.5	20.8	29	40.6	63.7	3.2	38.6	25.2	4.44	47.6	28.2	9.11
CCC(C)C1NC(=O)C2CCCN2C(=O)C(CC(C)C)OC(=O)CCNC(=O)C(C)N(C)C(=O)C(C(C)C)N(C)C1=O (centres undefined) (cyclo([ξLac(3-iPr)]PI[NMeV][NMeA][βAla]); configuration not given here)	17.6	81.8	> 100	> 89.2	> 100	14.9	19.6	> 100	> 96.3	45.5	17.3	> 45.9	> 100	> 100	29.2	> 100	41.8
O=c1[nH]c(=O)n(C2CC(O)C(CO)O2)c2nc3ccc4cc5ccccc5cc4c3nc12 (centres undefined)	> 100	> 100	> 100	> 100	> 100	> 100	> 100	> 100	> 100	> 100	> 100	> 100		> 100	> 100	> 100	> 100
O=C1NNC2NC(=O)C3(NN2C1=O)c1ccccc1-c1ccccc13 (centres undefined)	> 100	> 100	> 100	> 100	> 100	> 100	> 100	> 100	> 100		> 100	> 100	> 100	> 100	> 100	> 100	> 100
CCN(CC)c1ccc(/C=C/C(=O)c2cc(C(C)(C)C)c(O)c(C(C)(C)C)c2)cc1	> 81.2	> 100	> 100	> 100	> 100	37	> 39.1	> 100	> 39.9	> 30.3	13.5	99.1	38.2	> 100	> 100	> 84	> 100
CCCCCCCCCCCCCCCCOP(=O)(O)OCC(NC(C)=O)C(=O)O (centres undefined)	> 100	> 100	34	> 100	> 100	> 100	> 100	> 100	> 100		> 100	> 100	> 100	> 100	> 100	> 100	> 100
OC(c1ccc2c(c1)OCO2)c1ccc2c(c1)OCO2	> 100	> 100	> 100	> 100	> 100	> 100	> 100	> 100	> 100	> 100	> 100	> 100	> 100	> 100	> 100	> 100	> 100
COC(=O)[C@H]1COC(=O)N1	> 100	> 100	> 100	> 100	> 100	> 100	> 100	> 100	> 100	> 100	> 100	> 100	> 100	> 100	> 100	> 100	> 100
CCN(CC)C1C(=O)NC1C#Cc1ccccc1 (centres undefined)	> 100	> 100	> 100	> 100	> 100	> 100	> 100	92.1	> 100	> 100	> 100	> 100	> 100	> 100	> 100	> 100	> 100
CC(C)(C)OC(=O)NCCCC(=O)NC1(c2cc3ccccc3s2)CCCCC1	37.4	51	32.7	> 100	35.9	48.5	30.1	37.6	45.8	38.9	34.2		40.1	39.2	48.3	35.9	31.9
COc1cccc(Nc2nc(N)nc(N)c2N)c1	> 100	> 100	> 100	> 100	> 100	> 100	53.8	> 100	> 100	> 100	36.8	> 100	43.6	> 100	> 100	37.8	> 100
O=c1[nH]nc(-c2ccccc2)n1/N=C/c1ccccc1Cl	> 100	> 100	> 100	> 100	> 100	> 100	> 100	> 100	> 100	32.6	> 100	> 100	32.2	57.9	> 100	> 100	> 100
CCCCCCCCCCCCCCCCCCNc1nc(=O)n(C2CC(O)C(COP(=O)(O)OCC3OC(n4ccc(N)nc4=O)C(O)C3O)O2)cc1F (centres undefined)	> 100	> 100	> 100	> 100	> 100	> 100	> 100	> 100	> 100	> 100	> 100	> 100	> 100	> 100	23	> 100	> 100
Cc1ccc(OCC2OC(n3cnc4c(Cl)nc(Cl)nc43)CC2Oc2ccc(C)cc2)cc1 (centres undefined)	32.4	44.8	4.3	3.84	14.9	30.8	3.65	6.4	5.21	3.09	3.84	14.3	3.39	6	5.39	17.9	6.59
CC(=O)OCC1OC(O[C@@H]2C[C@H]3C(C)(C)[C@@H](OC(C)=O)CC[C@]3(C)[C@H]3CC[C@]45C[C@]4(CC[C@H]5[C@@H](C)C[C@@H](O)[C@H](O)C(C)(C)F)[C@@]32C)C(O)C(O)C1O (some centres undefined)	3.24	76.5	3.4	> 100	3.21	> 100	2.95	3.71	5.85	> 100	3.09		> 100	> 100	6.1	3.23	> 100
O=C(NC(Cc1cnc[nH]1)C(=O)N1CCCC1)C1CCCC1 (centres undefined)	> 100	> 100	> 100	> 100	> 100	> 100	> 100	> 100	> 100	> 100	> 100	> 100	> 100	> 100	> 100	> 100	
CSc1nc(C)c(CCOC(C)=O)c(Cl)n1	> 100	> 100	> 100	> 100	> 100	> 100	> 100	> 100	> 100	> 100	> 100	> 100	> 100	> 100	> 100	> 100	> 100
CCOC(=O)c1c(C)n([O-])c2cc(Cl)c(Cl)cc2[n+]1=O	84.5	58	75.9	30.8	74.4	29.1	46.3	33.2	58.3	27.5	> 100	33.5	40.7	37.1	53	51.9	44.5
